For 39 molecules, IC50 results are on record in patent publication US20080249130A1, “Gut microsomal triglyceride transport protein inhibitors” (Sirtris Pharmaceuticals, Inc., priority 2007, published 2008).

Each structure is given as a SMILES string.

For one experiment, the system named is secretion of ApoB by HepG2 cells. The experiment can be described thus: ApoB secretion inhibition assay in HepG2 cells (ApoB ELISA). The format is cell-based, human. Conditions: Homo sapiens, HepG2, Table 6, assay of Example 2; read-out: IC50 ApoB Assay. On the procedure:
The ability of the compounds of the present invention to inhibit the secretion of ApoB can be determined using the following cell-based assay, which measures the secretion of ApoB by HepG2 cells. ApoB has two possible metabolic fates: entrance into the lipoprotein assembly pathway within the lumen of the endoplasmic reticulum (ER), or degradation in the cytoplasm by the ubiquitin-dependent proteasome. The destiny of ApoB is determined by the relative availability of individual lipids, which is controlled by MTP (Davis, Biochim. Biophys. Acta, 1999, 1440, 1-31).
HepG2 cells (ATCC, HB-8065) are seeded in 96-well plates in DMEM with 10% FBS+pen/strep at a density of 1×10^5 cells/well (100 μl /well). Twenty-four hours after seeding, the plate is aspirated and the media changed to DMEM with 1% BSA and pen/strep, and the cells are serum-starved for 24 hours. After 24 hour serum-starvation, the plate is aspirated again and the cells are then treated for 24 hours with or without compound in DMEM with 1% BSA, 0.3 mM OA (OA complexed to BSA at a 2:1 ratio) and pen/strep. The final concentration of DMSO in the assay (from compound and control) is 0.1%. After 24 hour treatment, conditioned media is collected in an empty 96-well plate.
Cellular viability is measured using the cell permeable dye, AlamarBlue™. This dye undergoes electron reduction in viable cells but not dead cells. The reduced dye product gives a fluorescent signal which can be monitored with a fluorescence plate reader (excitation 545 nm and emission 575 nm). The amount of fluorescence generated in a given well is proportional to the number of viable cells. After collection, the 96-well plate is re-fed with 100 μl media (DMEM with 10% FBS) and 10 μl Alamar Blue™ per well, incubated for 2 hours and then read in a fluorescence plate reader.
ApoB secretion from HepG2 cells is quantitated by testing the conditioned media at […] using an ApoB ELISA kit (ALerCHEK) according to the manufacturer's instructions. The ELISA assay for ApoB is performed as follows: a polyclonal antibody against human ApoB (Chemicon) is diluted 1:1000 in carbonate-bicarbonate buffer and 100 μl are added to each well of a 96-well plate (NUNC). After 5 hours incubation at room temperature, the antibody solution is removed and wells are washed four times with PBS/0.05% TweenD 20 (Cayman Chemical Co.). Non-specific sites on the plastic plate are blocked by incubating wells for 1 to 1.5 hours in a solution of 0.5% BSA and 0.1% TweenD 20 made in PBS. One hundred microliters of a 1:20 dilution of growth medium from the HepG2 cells (made in 0.004% TweenD 20/1% BSA in PBS) is added to each well and incubated for 3 hours at room temperature. Wells are aspirated and washed four times (0.05% TweenD 20 in PBS) prior to adding 100 μl of a 1:1000 dilution (5 μg/ml) of the secondary antibody, mouse anti-human ApoB (Chemicon). After 2 hours incubation at room temperature, this solution is aspirated and the wells are again washed 4 times as above. One hundred microliters of peroxidase-conjugated affinity purified goat anti-mouse IgG (H+L) (Jackson ImmunoResearch Laboratories) (1:10,000 dilution in PBS/1% BSA/0.1% TweenD 20) is then added to each well and incubated for 1 hour at room temperature. After aspirating, the wells are washed 4 times as above and 50 μl of 1-step Ultra TMB ELISA reagent (Pierce) is added to each well and incubated for 5 minutes. The reaction is stopped by the addition of 50 μl of 2 NH2SO4 and absorbance of each well is read at 450 nm.
(In general: ELISA stands for enzyme-linked immunosorbent assay.)
Consider `CN(Cc1ccc(F)cc1)C(=O)[C@@H](NC(=O)c1nc2ccc(NC(=O)c3ccccc3-c3nc4ccccc4[nH]3)cc2s1)c1ccccc1` [Compound 39], for which the IC50 (in general, the concentration at which inhibition is half-maximal) came out at 256 nM. Still for that read-out and setting: as for `O=C(N[C@H](C(=O)N1CCCC1)c1ccccc1)c1nc2ccc(NC(=O)c3ccccc3-c3cn4ccsc4n3)cc2s1` [Compound 43], the figure is 105 nM; as for `O=C(N[C@H](C(=O)N1CCCCC1)c1ccccc1)c1nc2ccc(NC(=O)c3ccccc3-c3cn4ccsc4n3)cc2s1` [Compound 44], 1610 nM; as for `CC(C)(C)c1ccc(-c2ccccc2C(=O)NCC23CCC(C(=O)N[C@H](C(=O)N4CCCCC4)c4ccccc4)(CC2)CC3)cc1` [Compound 45], 98.2 nM. On to `CC(C)(C)c1ccc(-c2ccccc2C(=O)NCC23CCC(C(=O)N[C@H](C(=O)NC4CCCC4)c4ccccc4)(CC2)CC3)cc1` [Compound 46], for which the IC50 was 151 nM. For `CN(C(=O)[C@@H](NC(=O)C12CCC(CNC(=O)c3ccccc3-c3ccc(C(C)(C)C)cc3)(CC1)CC2)c1ccccc1)C1CCCC1` [Compound 47], the IC50 was 78.8 nM. Still for that read-out and setting: the result for `CC(C)(C)c1ccc(-c2ccccc2C(=O)NCC23CCC(C(=O)N[C@H](C(=O)NC4CCCCC4)c4ccccc4)(CC2)CC3)cc1` [Compound 48] reads 230 nM; that for `CC(C)(C)c1ccc(-c2ccccc2C(=O)NCC23CCC(C(=O)N[C@H](C(=O)NCC4CC4)c4ccccc4)(CC2)CC3)cc1` [Compound 49], 60.3 nM; that for `CC(C)(C)NC(=O)[C@@H](NC(=O)C12CCC(CNC(=O)c3ccccc3-c3ccc(C(C)(C)C)cc3)(CC1)CC2)c1ccccc1` [Compound 50], 165 nM. Consider `CN(C(=O)[C@@H](NC(=O)c1nc2ccc(NC(=O)c3ccccc3-c3cn4ccsc4n3)cc2s1)c1ccccc1)C1CCCC1` [Compound 51], for which the IC50 was found to be 872 nM.

Consider `CC(C)(C)NC(=O)[C@@H](NC(=O)c1nc2ccc(NC(=O)c3ccccc3-c3cn4ccsc4n3)cc2s1)c1ccccc1` [Compound 52], for which the IC50 was 248 nM. With `CN(C(=O)[C@@H](NC(=O)c1nc2ccc(NC(=O)c3ccccc3-c3cn4ccsc4n3)cc2s1)c1ccccc1)C(C)(C)C` [Compound 53], the IC50 was found to be 4180 nM. Turning to `CN(Cc1ccc(F)cc1)C(=O)[C@@H](NC(=O)c1nc(-c2ccc(NC(=O)c3ccccc3-c3ccc(C(C)(C)C)cc3)cc2)cs1)c1ccccc1` [Compound 56, (S)-4-(4-(4′-tert-butylbiphenyl-2-ylcarboxamido)phenyl)-N-(2-((4-fluorobenzyl)(methyl)amino)-2-oxo-1-phenylethyl)thiazole-2-carboxamide], the IC50 was found to be 846 nM. For the molecule `CC(C)(C)c1ccc(-c2ccccc2C(=O)Nc2ccc(-c3csc(C(=O)N[C@H](C(=O)N4CCCC4)c4ccccc4)n3)cc2)cc1` [Compound 57, (S)-4-(4-(4′-tert-butylbiphenyl-2-ylcarboxamido)phenyl)-N-(2-oxo-1-phenyl-2-(pyrrolidin-1-yl)ethyl)thiazole-2-carboxamide], the IC50 is 272 nM.

For the molecule `CN(C(=O)[C@@H](NC(=O)C12CCC(CNC(=O)c3ccccc3-c3ccc(C(C)(C)C)cc3)(CC1)CC2)c1ccccc1)C1CCCCC1` [Compound 58], the IC50 stood at 300 nM. The same measure, in the same setting: the result for `CN(C(=O)[C@@H](NC(=O)c1nc2ccc(NC(=O)c3ccccc3-c3cn4ccsc4n3)cc2s1)c1ccccc1)C1CCCCC1` [Compound 61] reads 2100 nM; that for `O=C(N[C@H](C(=O)NCC1CC1)c1ccccc1)c1nc2ccc(NC(=O)c3ccccc3-c3cn4ccsc4n3)cc2s1` [Compound 62], 286 nM. Still for that read-out and setting: as for `O=C(N[C@H](C(=O)NC1CCCCC1)c1ccccc1)c1nc2ccc(NC(=O)c3ccccc3-c3cn4ccsc4n3)cc2s1` [Compound 63], the figure is 82 nM; as for `Cc1cccc(C(=O)NCC23CCC(C(=O)N[C@H](C(=O)N4CCCC4)c4ccccc4)(CC2)CC3)c1-c1ccc(C(C)(C)C)cc1` [Compound 65], 5.2 nM; as for `Cc1cccc(C(=O)NCC23CCC(C(=O)N[C@H](C(=O)NCC4CC4)c4ccccc4)(CC2)CC3)c1-c1ccc(C(C)(C)C)cc1` [Compound 69], 8.9 nM.

Consider `Cc1cccc(C(=O)NCC23CCC(C(=O)N[C@H](C(=O)N(C)C(C)C)c4ccccc4)(CC2)CC3)c1-c1ccc(C(C)(C)C)cc1` [Compound 70], for which the IC50 is 13.8 nM. On the same count and under the same terms, the result for `Cc1cccc(C(=O)NCC23CCC(C(=O)N[C@H](C(=O)NCC(C)C)c4ccccc4)(CC2)CC3)c1-c1ccc(C(C)(C)C)cc1` [Compound 71] reads 14.2 nM; that for `Cc1cccc(C(=O)NCC23CCC(C(=O)N[C@H](C(=O)N(C)CC(C)C)c4ccccc4)(CC2)CC3)c1-c1ccc(C(C)(C)C)cc1` [Compound 72], 21.8 nM; that for `CCCCN(C)C(=O)[C@@H](NC(=O)C12CCC(CNC(=O)c3cccc(C)c3-c3ccc(C(C)(C)C)cc3)(CC1)CC2)c1ccccc1` [Compound 74], 19.8 nM. Still for that read-out and setting: the result for `COc1cccc(C(=O)Nc2ccc3nc(C(=O)N[C@H](C(=O)N(C)Cc4ccc(F)cc4)c4ccccc4)sc3c2)c1-c1ccc(C(C)C)cc1` [Compound 76] reads 2.8 nM. Take `COc1cccc(C(=O)Nc2ccc3nc(C(=O)N[C@H](C(=O)N(C)Cc4ccc(F)cc4)c4ccccc4)sc3c2)c1-c1ccc(C(F)(F)F)cc1` [Compound 80]: the IC50 was determined as 1.6 nM. Consider `CC(C)(C)c1ccc(-c2ccccc2C(=O)Nc2nc(-c3ccc(C(=O)N[C@H](C(=O)NCC4CC4)c4ccccc4)cc3)cs2)cc1` [Compound 81], for which the IC50 is 61.1 nM. As to `CC(C)CNC(=O)[C@@H](NC(=O)c1ccc(-c2csc(NC(=O)c3ccccc3-c3ccc(C(C)(C)C)cc3)n2)cc1)c1ccccc1` [Compound 82], the IC50 was 197 nM. Same read-out and setting: as for `Cc1cccc(C(=O)Nc2nc(-c3ccc(C(=O)N[C@H](C(=O)N(C)CC(C)C)c4ccccc4)cc3)cs2)c1-c1ccc(C(C)(C)C)cc1` [Compound 87], the figure is 339 nM. The same measure, in the same setting: as for `CCCN(C)C(=O)[C@@H](NC(=O)c1ccc(-c2csc(NC(=O)c3cccc(C)c3-c3ccc(C(C)(C)C)cc3)n2)cc1)c1ccccc1` [Compound 88], the figure is 81.3 nM; as for `Cc1cccc(C(=O)Nc2nc(-c3ccc(C(=O)N[C@H](C(=O)N4CCCC4)c4ccccc4)cc3)cs2)c1-c1ccc(C(C)C)cc1` [Compound 89], 8.8 nM; as for `Cc1cccc(C(=O)Nc2nc(-c3ccc(C(=O)N[C@H](C(=O)N(C)CC(C)C)c4ccccc4)cc3)cs2)c1-c1ccc(C(C)C)cc1` [Compound 90], 115 nM. The same measure, in the same setting: the result for `CC(C)CN(C)C(=O)[C@@H](NC(=O)c1ccc(-c2csc(NC(=O)c3ccccc3-c3ccc(C(C)(C)C)cc3)n2)cc1)c1ccccc1` [Compound 91] reads 422 nM; that for `CCCN(C)C(=O)[C@@H](NC(=O)c1ccc(-c2csc(NC(=O)c3ccccc3-c3ccc(C(C)(C)C)cc3)n2)cc1)c1ccccc1` [Compound 92], 110 nM. Regarding `CC(C)N(C)C(=O)[C@@H](NC(=O)c1ccc(-c2csc(NC(=O)c3ccccc3-c3ccc(C(C)(C)C)cc3)n2)cc1)c1ccccc1` [Compound 93], the half-inhibitory concentration (IC50) was 89.7 nM. Take `CC(C)c1ccc(-c2ccccc2C(=O)Nc2nc(-c3ccc(C(=O)N[C@H](C(=O)N4CCCC4)c4ccccc4)cc3)cs2)cc1` [Compound 94]: the IC50 turned out to be 18.5 nM.

Take `CCCN(C)C(=O)[C@@H](NC(=O)c1ccc(-c2csc(NC(=O)c3ccccc3-c3ccc(C(C)C)cc3)n2)cc1)c1ccccc1` [Compound 95]: the IC50 was 228 nM. Same read-out and setting: as for `Cc1cccc(C(=O)NCC23CCC(C(=O)NC(C(=O)N4CCCC4)c4ccccc4)(CC2)CC3)c1-c1ccc(C(C)C)cc1` (stereo not shown) [Compound 96], the figure is 11 nM.

As for `CCCN(C)C(=O)[C@@H](NC(=O)c1ccc(-c2csc(NC(=O)c3cccc(C)c3-c3ccc(C(C)C)cc3)n2)cc1)c1ccccc1` [Compound 97], the IC50 turned out to be 143 nM.

Still in this experiment, the particulars now being: Table 6, assay of Example 2; read-out: IC50 ApoB Assay.
For the molecule `Cc1cccc(C(=O)NCC23CCC(C(=O)N[C@H](C(=O)N4CCCC4)c4ccccc4)(CC2)CC3)c1-c1ccc(C(C)(C)C)cc1` [Compound 65], the IC50 came out at 4.5 nM.
